Assay results as given in patent publication US11390580B2, “Anti-fungals targeting the synthesis of fungal shingolipids” (THE RESEARCH FOUNDATION FOR THE STATE UNIVERSITY OF NEW YORK, priority 2014, dated 2022).
≈ marks a conversion by molar mass, not a printed value. Where “and” joins values, the source holds several entries; their conditions need not be identical. Equal entries are not always repeated. Entries after “also recorded” stand apart in the source; their conditions may differ.

Legend:
[1] = system: Smt1; experiment: In vitro Smt1 activity; type: biochemical, C. neoformans
[2] = system: Candida krusei; experiment: In vitro susceptibility testing (MIC); type: cell-based; conditions: for BHBM 24 Hr 50% / BHBM 48 Hr 50%: MIC, QC strain
[3] = system: Coccidioides spp; experiment: microbe, parasite or virus in culture; type: cell-based; conditions: for BHBM 48 Hr 50%: MIC, FTL strains
[4] = system: C. neoformans; experiment: Synergistic assay (fractional inhibitory index, FIC)
[5] = In vivo toxicity in uninfected mice
[6] = system: Sld8; experiment: In vitro Sld8 activity; type: biochemical, C. neoformans
[7] = system: C. neoformans (H99); experiment: Transmission electron microscopy of treated cells; conditions: 4 μg/mL, 6 hours
[8] = system: Candida parapsilosis; experiment: In vitro susceptibility testing (MIC); type: cell-based; conditions: for BHBM 24 Hr 50% / BHBM 48 Hr 50%: MIC, FTL strains
[9] = system: synthesis of GlcCer in mammalian (J774) cells; experiment: In vivo labeling with 3H palmitate, TLC of GlcCer; type: cell-based, murine; conditions: 3H palmitate labeling
[10] = system: Candida albicans; experiment: In vitro susceptibility testing (MIC); type: cell-based
[11] = system: Candida spp; experiment: In vitro susceptibility testing; type: cell-based; conditions: most Candida spp examined
[12] = system: P. murina
[13] = system: Aspergillus fumigatus; experiment: In vitro susceptibility testing (MIC); type: cell-based
[14] = system: Golgi morphology of C. albicans; experiment: C6-NBD-ceramide staining of the Golgi; type: cell-based, Candida albicans; conditions: 4 μg/ml
Experimental: The Golgi apparatus of C. neoformans and C. albicans was stained with C6-NBD-ceramide using a previously described protocol (Kmetzsch, L. et al. 2011), based on the property that this fluorescent lipid accumulates at the Golgi of either living or fixed cells (Pagano R. E. et al. 1989). […] Cell suspensions were then washed with the same buffer and incubated with C6-NBD-ceramide ([…]) for 16 h at 4° C. The cells were then incubated with bovine serum albumin (BSA, 1%) at 4° C. for 1 h to remove the excess of C6-NBD-ceramide. […] Louis, USA) for 30 min at room temperature. The cells were washed again with PBS and stained cell suspensions were mounted over glass slides as described above and analyzed under an Axioplan 2 (Zeiss, Germany).

[15] = system: Histoplasma capsulatum; type: cell-based
[16] = system: C. neoformans; experiment: Resistance assay, daily passages in sub-MIC drug; conditions: 15 days of passages below the MIC
[17] = system: C. neoformans H99; experiment: Animal studies for cryptococcosis (intranasal infection); type: in vivo, mice
[18] = system: Candida guilliermondii; experiment: In vitro susceptibility testing (MIC); type: cell-based
[19] = system: Cryptococcus gattii; experiment: In vitro susceptibility testing (MIC); type: cell-based
[20] = system: C. albicans secreted vesicles; experiment: Vesicle secretion measured by vesicular sterols; type: cell-based, Candida albicans
Description: (§1) WF, white field; NBD-Cer, NBD-ceramide.

[21] = system: C. neoformans sphingolipids; experiment: Sphingolipid levels by TLC and lipid mass spectrometry; type: cell-based, Cryptococcus neoformans
Experimental: Labeling fungal cells. […] Samples without drug were included as control. Before lipid extraction, lipid internal standards (C17 ceramide and C17 sphingosine) were added. Lipids were then extracted following the methods of […] and Bligh and Dyer and one fourth of the sample was aliquoted for determination of the inorganic phosphate. The remainder of the sample was subjected to base hydrolysis and then analyzed using LC/MS. Results were normalized with the inorganic phosphate levels.

[22] = system: synthesis of GlcCer in C. neoformans cells; experiment: In vivo labeling with 3H palmitate, TLC of GlcCer; conditions: 3H palmitate labeling
[23] = system: C. neoformans secreted vesicles; experiment: Vesicle secretion measured by vesicular sterols; type: cell-based, Cryptococcus neoformans
Description: as §1

[24] = system: P. aeruginosa PA14; experiment: Antibacterial activity, LB agar well diffusion; conditions: up to 160 μg/mL, 30° C., 24 hr
[25] = system: Rhizopus oryzae; experiment: In vitro susceptibility testing (MIC); type: cell-based
[26] = In vitro toxicity, MTT assay; conditions: mouse, J774.16 macrophage cells
[27] = system: L2 cell line; experiment: In vitro toxicity; type: cell-based
[28] = TLC, confirmed by mass spectrometry

## Cc1ccccc1C(=O)NN=Cc1ccc(O)c(Br)c1 [BHBM, N′-(3-bromo-4-hydroxybenzylidene)-2-methylbenzohydrazide]
[1]
  in vitro activity of Smt1: does not inhibit
[2]; 1 MDP Lab strain
  MIC range: 32 µg/mL (≈ 96 µM)
[2]; ATCC 6258, MDP Lab
  MIC range: 16 µg/mL (≈ 48 µM)
[2]
  BHBM 24 Hr 50%: 4
  BHBM 48 Hr 50%: 8
[2]; first listing r7-r78
  BHBM 24 Hr 50%: 4
  BHBM 48 Hr 50%: 8
[2]; Pichia kudriavzevii, read-out: MIC (moderately active)
  MIC: 8 to 16 µg/mL (≈ 24 to 48 µM)
[2]; QC, Fungus Testing Lab
  MIC range: 8 µg/mL (≈ 24 µM)
[3]; 10 Fungus Testing Lab strains
  MIC range: 8 to 16 µg/mL
[3]; Coccidioides, read-out: MIC (moderately active)
  MIC: 8 to 16 µg/mL (≈ 24 to 48 µM)
[3]
  BHBM 48 Hr 50%: 16 and 8 and >16
[3]; first listing r7-r78
  BHBM 48 Hr 50%: 8 and 16
[4]; combined with Amphotericin B
  FIC index: 0.75
[4]; combined with Fluconazole
  FIC index: 0.38
[4]; combined with Tunicamycin
  interaction: synergistic
[4]; combined with caspofungin
  FIC index: 1
[5]; 1.2 mg/kg/day intraperitoneally for 60 days
  liver Aspartate aminotransferase (AST): 125±75 U/L
[5]; 60 days
  other blood parameters for liver and kidney function: normal
[5]; lungs, brains, kidney, spleen, liver, 60 days
  histological analysis of organs vs untreated uninfected mice: no difference
[5]; treated daily for 60 days
  appearance, weight, physical activity and behavior: appeared normal
[6]
  in vitro activity of Sld8: does not inhibit
[7]
  number of vacuoles per μm^2 of cell surface area: 0.84±0.58
[8]
  in vitro activity: not active
  BHBM 24 Hr 50%: >16
  BHBM 48 Hr 50%: >16
[8]; 3 MDP Lab strains
  MIC range: >32 µg/mL
[8]; first listing r7-r78
  BHBM 24 Hr 50%: >16
  BHBM 48 Hr 50%: >16
[8]; QC, Fungus Testing Lab
  MIC range: >16 µg/mL
[9]
  inhibition of the synthesis of GlcCer: no significant changes
[9]; listed as #5271226
  inhibition of the synthesis of GlcCer: not in mammalian (J774) cells
[10]
  in vitro activity: not active
[10]; 3 Fungus Testing Lab strains
  MIC range: >32 µg/mL
[10]; 5 MDP Lab strains
  MIC range: >32 µg/mL
[11]
  in vitro susceptibility: resistant
[12]; 0.8 mg/Kg/twice a day, 13 days
  improvement in survival, low dose vs vehicle treated negative controls: the difference was not significant
[12]; 0.8 or 1.6 mg/Kg/twice a day, 13 days
  survival, low dose vs high dose: low dose mice showed improved survival over the high dose mice
[12]; 13 days of treatment
  number of asci and nuclei in lung homogenates vs negative control: No significant differences
[13]; 1 MDP Lab strain
  MIC range: 8 µg/mL (≈ 24 µM)
[13]; 3 Fungus Testing Lab strains
  MIC range: >16 µg/mL
[13]; Aspergillus fumigatus, read-out: MIC (moderately active)
  MIC: 8 to 16 µg/mL (≈ 24 to 48 µM)
[14]
  Golgi morphology: changes in the Golgi morphology were dramatic
[15]
  in vitro activity: good in vitro activity
[15]; 10 Fungus Testing Lab strains
  MIC range: 0.125 to 1 µg/mL
[16]
  development of resistance: do not develop resistance
[17]; 1.2 mg/Kg/day intraperitoneally, up to 60 days
  mice surviving infection: 90%
[17]; 1.2 mg/Kg/day, day 60
  fungal burden in brain: No C. neoformans cells were found in brains
[17]; 1.2 mg/Kg/day, day 60, compared to infected untreated mice
  fungal burden in lung: decrease the fungal burden in the lung
[17]; day 60
  brain histology: no fungal cells and normal structure
  lung histology: granulomatous response limited in few areas of the lung
[18]; MIC, FTL strains
  BHBM 24 Hr 50%: >16
  BHBM 48 Hr 50%: >16
[18]; Meyerozyma guilliermondii, read-out: MIC (moderately active)
  MIC: 8 to 16 µg/mL (≈ 24 to 48 µM)
[19]
  in vitro activity: good in vitro activity
[19]; 3 MDP Lab strains
  MIC range: 0.5 to 1 µg/mL
[19]; 10 Fungus Testing Lab strains
  MIC range: 0.5 to 2 µg/mL
[19]; MIC, FTL strains
  BHBM 72 Hr 50%: 16 and >16 and 8
[20]
  secreted vesicles measured by sterol content: marked reductions of secreted vesicles
[21]; TLC
  sphingosine-1-phosphate level: increased
[21]; [28]
  GlcCer level: decreased
  dihydroceramide level: increased
  sphingosine level: increased; also recorded: accumulation of sphingosines
[21]; data not shown
  level of IPC: does not decrease the level of IPC
[22]
  inhibition of the synthesis of GlcCer: significantly inhibit the synthesis of GlcCer
[23]
  secreted vesicles measured by sterol content: marked reductions of secreted vesicles
[24]
  zone of inhibition: No zone of inhibition
[25]
  in vitro activity: good in vitro activity
[25]; 3 Fungus Testing Lab strains
  MIC range: 2 µg/mL (≈ 6 µM)
[26]
  EC50 at 48 h: 50 µg/mL (≈ 150 µM)
[27]
  toxicity: slight to moderate toxicity
